Reference: PubChem BioAssay (NCI)
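All cell lines were grown in 96-well plates and treated with compound for 48 hours. TGI: concentration producing complete growth inhibition.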

What was measured:
Assay in all cases: inhibition of tumour cell growth, NCI panel, 48 h
UACC-62 melanoma = tested on: UACC-62 melanoma
SN12C renal = tested on: SN12C renal
SK-MEL-2 melanoma = tested on: SK-MEL-2 melanoma
UACC-257 melanoma = tested on: UACC-257 melanoma
SNB-19 CNS = tested on: SNB-19 CNS
CCRF-CEM leukemia = tested on: CCRF-CEM leukemia
HCC-2998 colon = tested on: HCC-2998 colon
OVCAR-3 ovarian = tested on: OVCAR-3 ovarian
RPMI-8226 leukemia = tested on: RPMI-8226 leukemia
PC-3 prostate = tested on: PC-3 prostate
SF-539 CNS = tested on: SF-539 CNS
HT29 colon = tested on: HT29 colon
T-47D breast = tested on: T-47D breast
EKVX NSCLC = tested on: EKVX NSCLC
NCI-H23 lung = tested on: NCI-H23 lung
NCI-H460 lung = tested on: NCI-H460 lung
SK-MEL-28 melanoma = tested on: SK-MEL-28 melanoma
ACHN renal = tested on: ACHN renal
MCF7 breast = tested on: MCF7 breast
SK-MEL-5 melanoma = tested on: SK-MEL-5 melanoma
BT-549 breast = tested on: BT-549 breast
NCI-H522 lung = tested on: NCI-H522 lung
CAKI-1 renal = tested on: CAKI-1 renal
RXF 393 renal = tested on: RXF 393 renal
HCT-15 colon = tested on: HCT-15 colon
SF-295 CNS = tested on: SF-295 CNS
M14 melanoma = tested on: M14 melanoma
MDA-MB-435 = tested on: MDA-MB-435
A498 renal = tested on: A498 renal
MOLT-4 leukemia = tested on: MOLT-4 leukemia
SW-620 colon = tested on: SW-620 colon
786-0 renal = tested on: 786-0 renal
MDA-MB-231 breast = tested on: MDA-MB-231 breast
COLO 205 colon = tested on: COLO 205 colon
NCI-H226 lung = tested on: NCI-H226 lung
HS 578T breast = tested on: HS 578T breast
HL-60(TB) leukemia = tested on: HL-60(TB) leukemia
NCI/ADR-RES ovarian = tested on: NCI/ADR-RES ovarian
MDA-N = tested on: MDA-N
SF-268 CNS = tested on: SF-268 CNS
DU-145 prostate = tested on: DU-145 prostate
SR leukemia = tested on: SR leukemia
U251 CNS = tested on: U251 CNS
UO-31 renal = tested on: UO-31 renal
KM12 colon = tested on: KM12 colon
A549 NSCLC = tested on: A549 NSCLC
HCT-116 colon = tested on: HCT-116 colon
K-562 leukemia = tested on: K-562 leukemia
HOP-92 NSCLC = tested on: HOP-92 NSCLC
SNB-75 CNS = tested on: SNB-75 CNS
MALME-3M melanoma = tested on: MALME-3M melanoma
OVCAR-4 ovarian = tested on: OVCAR-4 ovarian
LOX IMVI melanoma = tested on: LOX IMVI melanoma
IGROV1 ovarian = tested on: IGROV1 ovarian
SK-OV-3 ovarian = tested on: SK-OV-3 ovarian
OVCAR-8 ovarian = tested on: OVCAR-8 ovarian
HOP-62 NSCLC = tested on: HOP-62 NSCLC
OVCAR-5 ovarian = tested on: OVCAR-5 ovarian
TK-10 renal = tested on: TK-10 renal

Measured: TGI

CC(=O)OC1CCn2c1nc1cc([N+](=O)[O-])c(C)cc12 (stereo not drawn)
not listed: HOP-62 NSCLC | OVCAR-5 ovarian | TK-10 renal
> 100 µM: all other assays above

NC(CCC(=O)c1ccccn1)C(=O)O (stereo not drawn)
not listed: K-562 leukemia | SNB-75 CNS
> 100 µM: all other assays above
